Reference: the supplement of paper PMC12463676, “Small-molecule dissolution of stress granules by redox modulation benefits ALS models” (Nature Chemical Biology, 2025)

Experiments:
[1] = compound: NC(=O)CCCCC1CCSS1 [lipoamide]; test: thermal stability z-score vs DMSO; higher = more thermally stabilized by treatment; settings: HeLa, lipoamide concentration 100 µM
Description: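 Cellular thermal proteome profiling in HeLa cells. Cells were treated with 100 µM lipoamide for 1 h, with or without 1 mM arsenate for a further 1 h, then heated to ten temperatures (37-66.3 °C), and soluble protein was quantified by TMT mass spectrometry relative to 0.1% DMSO controls. The thermal stability score (sum of log2 fold changes minus the abundance score) was transformed to a z-score; mean of n = 3 experiments.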

[2] = compound: O=[As]([O-])(O)O.[K+] [potassium arsenate]; test: as above; settings: HeLa; arsenate concentration 1 mM
Description: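 Cellular thermal proteome profiling in HeLa cells treated with 1 mM arsenate for 1 h (DMSO pretreatment), heated to ten temperatures (37-66.3 °C). Soluble protein was quantified by TMT mass spectrometry relative to DMSO controls; the thermal stability score was transformed to a z-score; mean of n = 3 experiments.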

[3] = arsenate co-treatment: 1 mM arsenate 1 h
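Further: each temperature applied for 3 min, abundance score taken as mean log2 fold change at the two lowest temperatures, z-score obtained by mean subtraction and division by SD.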

Sequence of UniProt Q9BW19 (Q9BW19 whole entry): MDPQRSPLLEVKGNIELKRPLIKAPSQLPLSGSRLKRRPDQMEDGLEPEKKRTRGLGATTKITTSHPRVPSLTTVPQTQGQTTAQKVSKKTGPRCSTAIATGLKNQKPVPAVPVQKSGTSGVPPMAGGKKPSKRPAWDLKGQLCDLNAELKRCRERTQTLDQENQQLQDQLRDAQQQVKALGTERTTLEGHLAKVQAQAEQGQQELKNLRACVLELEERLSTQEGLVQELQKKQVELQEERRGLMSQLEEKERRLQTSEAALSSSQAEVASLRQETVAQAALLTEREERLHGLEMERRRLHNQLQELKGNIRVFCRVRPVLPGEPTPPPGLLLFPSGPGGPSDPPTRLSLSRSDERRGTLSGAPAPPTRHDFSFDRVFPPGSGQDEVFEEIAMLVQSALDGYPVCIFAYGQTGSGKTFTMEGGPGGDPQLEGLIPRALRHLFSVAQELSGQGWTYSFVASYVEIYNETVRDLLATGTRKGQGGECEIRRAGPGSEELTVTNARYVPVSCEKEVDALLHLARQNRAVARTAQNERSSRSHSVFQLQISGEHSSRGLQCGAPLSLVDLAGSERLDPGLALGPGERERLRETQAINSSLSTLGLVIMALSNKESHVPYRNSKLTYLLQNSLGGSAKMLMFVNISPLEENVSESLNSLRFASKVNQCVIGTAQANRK
Sequence of UniProt Q9H1E5 (Q9H1E5 whole entry): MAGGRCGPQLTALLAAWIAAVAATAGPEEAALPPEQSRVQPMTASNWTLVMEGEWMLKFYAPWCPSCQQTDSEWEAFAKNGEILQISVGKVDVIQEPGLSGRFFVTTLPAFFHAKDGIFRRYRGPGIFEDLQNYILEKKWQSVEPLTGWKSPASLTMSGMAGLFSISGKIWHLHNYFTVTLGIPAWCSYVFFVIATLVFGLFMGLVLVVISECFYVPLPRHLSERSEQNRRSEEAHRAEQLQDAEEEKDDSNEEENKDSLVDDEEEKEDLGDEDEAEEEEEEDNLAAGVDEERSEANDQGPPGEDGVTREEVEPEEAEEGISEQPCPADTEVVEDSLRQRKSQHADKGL
Sequence of UniProt Q86XI2 (Q86XI2 whole entry): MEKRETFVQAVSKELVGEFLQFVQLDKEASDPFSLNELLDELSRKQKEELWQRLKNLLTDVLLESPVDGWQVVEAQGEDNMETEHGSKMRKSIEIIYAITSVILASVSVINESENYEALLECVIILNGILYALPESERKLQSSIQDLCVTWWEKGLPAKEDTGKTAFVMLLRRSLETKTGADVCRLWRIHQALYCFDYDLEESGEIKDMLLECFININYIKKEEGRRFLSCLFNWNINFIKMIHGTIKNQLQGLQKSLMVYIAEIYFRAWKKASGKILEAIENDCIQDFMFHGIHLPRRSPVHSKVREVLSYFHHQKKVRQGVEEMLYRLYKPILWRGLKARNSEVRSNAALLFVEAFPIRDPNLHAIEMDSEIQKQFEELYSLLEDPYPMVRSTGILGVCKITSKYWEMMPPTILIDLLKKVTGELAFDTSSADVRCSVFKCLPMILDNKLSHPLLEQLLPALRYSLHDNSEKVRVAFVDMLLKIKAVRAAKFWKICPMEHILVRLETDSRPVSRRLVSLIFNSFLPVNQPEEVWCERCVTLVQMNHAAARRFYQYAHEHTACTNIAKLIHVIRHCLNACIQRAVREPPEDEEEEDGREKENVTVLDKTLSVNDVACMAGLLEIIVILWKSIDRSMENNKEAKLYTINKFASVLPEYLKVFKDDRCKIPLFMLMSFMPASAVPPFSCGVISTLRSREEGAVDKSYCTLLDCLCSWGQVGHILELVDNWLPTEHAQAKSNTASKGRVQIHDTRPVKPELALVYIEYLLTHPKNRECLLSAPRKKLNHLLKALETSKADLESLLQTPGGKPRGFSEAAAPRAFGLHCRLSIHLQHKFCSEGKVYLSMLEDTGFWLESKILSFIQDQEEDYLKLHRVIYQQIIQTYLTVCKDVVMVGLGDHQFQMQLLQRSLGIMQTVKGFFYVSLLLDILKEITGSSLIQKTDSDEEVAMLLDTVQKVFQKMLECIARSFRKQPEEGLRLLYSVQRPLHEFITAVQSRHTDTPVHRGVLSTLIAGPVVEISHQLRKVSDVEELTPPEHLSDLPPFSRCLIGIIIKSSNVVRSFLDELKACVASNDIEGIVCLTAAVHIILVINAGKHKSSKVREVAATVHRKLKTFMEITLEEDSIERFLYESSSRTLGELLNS
Sequence of UniProt Q6IBW4 (Q6IBW4 whole entry): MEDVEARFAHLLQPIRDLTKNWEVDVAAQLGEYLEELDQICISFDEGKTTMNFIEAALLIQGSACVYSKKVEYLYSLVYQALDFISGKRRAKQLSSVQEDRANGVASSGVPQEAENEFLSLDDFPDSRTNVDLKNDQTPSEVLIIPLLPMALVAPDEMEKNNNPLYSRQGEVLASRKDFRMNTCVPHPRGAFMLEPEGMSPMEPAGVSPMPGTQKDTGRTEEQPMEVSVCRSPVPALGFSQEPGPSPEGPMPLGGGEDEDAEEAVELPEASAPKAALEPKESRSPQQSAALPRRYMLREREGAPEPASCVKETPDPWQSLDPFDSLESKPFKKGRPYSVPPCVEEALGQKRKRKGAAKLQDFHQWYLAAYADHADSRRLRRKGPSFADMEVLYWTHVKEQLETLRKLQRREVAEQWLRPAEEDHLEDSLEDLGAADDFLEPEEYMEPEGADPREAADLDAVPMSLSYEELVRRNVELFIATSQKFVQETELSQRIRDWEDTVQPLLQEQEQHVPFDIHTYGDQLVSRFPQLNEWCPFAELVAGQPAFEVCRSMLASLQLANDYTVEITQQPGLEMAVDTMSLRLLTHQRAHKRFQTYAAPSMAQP
Sequence of UniProt Q13033 (Q13033 whole entry): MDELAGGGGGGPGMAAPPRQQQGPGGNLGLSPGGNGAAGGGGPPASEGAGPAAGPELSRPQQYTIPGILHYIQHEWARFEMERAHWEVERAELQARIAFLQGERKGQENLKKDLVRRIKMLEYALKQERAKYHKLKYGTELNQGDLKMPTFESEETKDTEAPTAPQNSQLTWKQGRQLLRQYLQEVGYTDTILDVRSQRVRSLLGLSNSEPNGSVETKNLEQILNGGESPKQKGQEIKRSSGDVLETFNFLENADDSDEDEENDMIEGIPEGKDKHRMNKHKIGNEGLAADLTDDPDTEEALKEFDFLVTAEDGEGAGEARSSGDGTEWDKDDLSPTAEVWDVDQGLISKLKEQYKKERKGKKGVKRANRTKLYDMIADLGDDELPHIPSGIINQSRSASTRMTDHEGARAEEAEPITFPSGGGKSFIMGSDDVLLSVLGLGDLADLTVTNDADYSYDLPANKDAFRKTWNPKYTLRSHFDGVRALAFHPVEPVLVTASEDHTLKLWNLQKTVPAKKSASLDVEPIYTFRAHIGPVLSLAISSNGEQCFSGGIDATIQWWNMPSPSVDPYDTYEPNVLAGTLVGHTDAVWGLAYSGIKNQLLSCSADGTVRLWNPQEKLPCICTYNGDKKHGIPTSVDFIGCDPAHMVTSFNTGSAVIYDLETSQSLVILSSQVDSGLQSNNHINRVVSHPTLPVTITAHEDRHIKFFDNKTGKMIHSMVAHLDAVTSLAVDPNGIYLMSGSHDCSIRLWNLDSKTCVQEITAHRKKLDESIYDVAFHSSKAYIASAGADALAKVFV
Sequence of UniProt Q13283 (Q13283 whole entry, looked up): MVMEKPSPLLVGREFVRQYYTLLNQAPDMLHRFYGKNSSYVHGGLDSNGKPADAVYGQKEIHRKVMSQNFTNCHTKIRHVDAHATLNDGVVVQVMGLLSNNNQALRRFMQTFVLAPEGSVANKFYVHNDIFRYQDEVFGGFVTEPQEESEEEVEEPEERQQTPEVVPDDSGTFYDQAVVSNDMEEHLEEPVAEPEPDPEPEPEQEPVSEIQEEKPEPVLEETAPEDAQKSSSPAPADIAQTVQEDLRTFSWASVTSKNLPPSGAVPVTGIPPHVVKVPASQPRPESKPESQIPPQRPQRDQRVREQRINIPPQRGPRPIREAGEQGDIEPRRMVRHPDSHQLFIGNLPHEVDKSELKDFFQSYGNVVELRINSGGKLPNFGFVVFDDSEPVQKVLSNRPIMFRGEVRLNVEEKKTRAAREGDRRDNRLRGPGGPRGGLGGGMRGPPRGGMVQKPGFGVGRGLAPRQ
Sequence of UniProt Q8NHU3 (Q8NHU3 whole entry): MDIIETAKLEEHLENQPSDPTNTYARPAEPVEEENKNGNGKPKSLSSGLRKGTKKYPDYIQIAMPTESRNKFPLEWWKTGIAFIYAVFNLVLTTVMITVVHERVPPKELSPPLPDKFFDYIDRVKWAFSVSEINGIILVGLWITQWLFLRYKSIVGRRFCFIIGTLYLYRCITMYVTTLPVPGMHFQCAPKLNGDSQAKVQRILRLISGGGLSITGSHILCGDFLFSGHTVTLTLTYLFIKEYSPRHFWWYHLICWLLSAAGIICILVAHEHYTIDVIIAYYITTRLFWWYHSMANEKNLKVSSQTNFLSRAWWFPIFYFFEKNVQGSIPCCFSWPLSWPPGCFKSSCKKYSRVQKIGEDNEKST
Sequence of UniProt Q9NXG2 (Q9NXG2 whole entry): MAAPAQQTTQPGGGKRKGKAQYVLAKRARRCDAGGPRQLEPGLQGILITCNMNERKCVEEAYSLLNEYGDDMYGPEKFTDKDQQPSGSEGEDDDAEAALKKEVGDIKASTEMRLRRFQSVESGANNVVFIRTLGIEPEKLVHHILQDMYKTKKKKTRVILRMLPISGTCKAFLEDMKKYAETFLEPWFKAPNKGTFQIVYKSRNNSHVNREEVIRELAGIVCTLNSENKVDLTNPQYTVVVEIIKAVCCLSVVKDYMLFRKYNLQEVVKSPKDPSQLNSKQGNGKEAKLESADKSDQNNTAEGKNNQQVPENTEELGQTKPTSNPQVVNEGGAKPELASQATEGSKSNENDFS
Sequence of UniProt Q12983 (Q12983 whole entry): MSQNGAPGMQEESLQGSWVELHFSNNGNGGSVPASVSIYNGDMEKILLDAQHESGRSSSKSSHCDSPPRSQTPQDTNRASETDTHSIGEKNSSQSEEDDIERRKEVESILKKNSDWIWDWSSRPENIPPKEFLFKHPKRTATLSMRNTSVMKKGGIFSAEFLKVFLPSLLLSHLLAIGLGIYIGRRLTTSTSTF

| Target | thermal stability z-score [1, 3] | thermal stability z-score ([1]; arsenate co-treatment: none) | thermal stability z-score [2] |
| --- | --- | --- | --- |
| F11R (UniProt Q9Y624) | 0.865 | 0.653 | 0.151 |
| BNIP3 (UniProt Q12983) | 0.679 | 0.193 | 2.44 |
| TAF6 (UniProt P49848) | -0.0822 | -0.089 | 0.318 |
| NUP205 (UniProt Q92621) | -0.769 | -0.572 | 1.05 |
| RRM1 (UniProt P23921) | 0.219 | 0.204 | 0.11 |
| MTA3 (UniProt Q9BTC8) | 0.106 | 0.129 | -0.13 |
| SELENBP1 (UniProt Q13228) | 0.567 | 0.164 | 0.784 |
| PLXNB2 (UniProt O15031) | 0.453 | 0.113 | -0.338 |
| FMNL2 (UniProt Q96PY5) | 0.0679 | -0.0271 | -0.048 |
| COPB2 (UniProt P35606) | 0.165 | -0.0303 | 0.238 |
| C1QTNF6 (UniProt Q9BXI9) | -0.0299 | 0.334 | 0.794 |
| CNTLN (UniProt Q9NXG0) | -0.163 | -0.342 | -0.0711 |
| ISOC1 (UniProt Q96CN7) | 1.2 | 1.14 | 8.79 |
| SNX4 (UniProt O95219) | -0.688 | -0.344 | 0.288 |
| TOLLIP (UniProt Q9H0E2) | 0.239 | 0.158 | -0.313 |
| SF3B1 (UniProt O75533) | 2.46 | 0.661 | -0.873 |
| SLC7A2 (UniProt P52569) | 0.412 | -0.0842 | 0.647 |
| G3BP1 (UniProt Q13283) | 0.523 | 0.664 | 0.753 |
| TMEM186 (UniProt Q96B77) | -1.59 | -0.895 | -0.803 |
| TMX4 (UniProt Q9H1E5) | -1.34 | -1.22 | 0.19 |
| MACF1 | -0.0421 | -0.0441 | -0.308 |
| LSM14A (UniProt Q8ND56) | 0.62 | -0.111 | 1.03 |
| AP3M1 (UniProt Q9Y2T2) | 0.0419 | 0.0205 | 0.418 |
| LMNB2 (UniProt Q03252) | 0.686 | 0.0237 | 0.839 |

| Target | thermal stability z-score [1, 3] | thermal stability z-score ([1]; arsenate co-treatment: none) | thermal stability z-score [2] |
| --- | --- | --- | --- |
| MRPS12 (UniProt O15235) | -0.367 | 0.0698 | 0.233 |
| FNDC3B (UniProt Q53EP0) | -0.593 | 0.623 | 3.13 |
| CDK8 (UniProt P49336) | -0.0332 | -0.822 | -1.66 |
| SGMS2 (UniProt Q8NHU3) | -1.39 | -0.337 | -1.22 |
| ZC3H11A (UniProt O75152) | 0.0837 | -0.0442 | -0.845 |
| SETDB1 (UniProt Q15047) | -0.239 | -0.253 | -0.254 |
| NCAPH2 (UniProt Q6IBW4) | -0.0183 | 0.00929 | -0.299 |
| EXOSC10 (UniProt Q01780) | 0.0236 | -0.0314 | -0.437 |
| NPTX1 (UniProt Q15818) | -3.62 | -3.29 | 0.869 |
| FPGS (UniProt Q05932) | 0.0221 | -0.181 | 0.864 |
| CCDC6 (UniProt Q16204) | -0.497 | -0.185 | -0.505 |
| MESDC2 (UniProt Q14696) | -1.36 | -1.28 | 0.346 |
| TRIM25 (UniProt Q14258) | -0.86 | -0.867 | -0.882 |
| MAPK1 (UniProt P28482) | 0.246 | -0.0239 | -0.175 |
| AKAP11 (UniProt Q9UKA4) | 0.0955 | 0.0515 | -0.0869 |
| FDFT1 (UniProt P37268) | -0.0123 | 0.444 | 0.108 |
| NCAPG2 (UniProt Q86XI2) | -0.00836 | -0.0717 | -0.267 |
| UBQLN1 (UniProt Q9UMX0) | 2.04 | 2.04 | 0.778 |
| CRKL (UniProt P46109) | 0.0621 | 0.384 | 0.656 |
| SKIV2L (UniProt Q15477) | -0.147 | -0.384 | 0.2 |
| SLAIN2 (UniProt Q9P270) | 0.251 | 0.508 | -0.0239 |
| PSMC2 (UniProt P35998) | -0.293 | -0.165 | -0.134 |
| SLC7A1 (UniProt P30825) | 0.364 | -0.194 | -0.33 |
| RAB6A (UniProt P20340) | 0.448 | 0.693 | 0.284 |

| Target | thermal stability z-score [1, 3] | thermal stability z-score ([1]; arsenate co-treatment: none) | thermal stability z-score [2] |
| --- | --- | --- | --- |
| ANAPC10 (UniProt Q9UM13) | 0.0276 | -0.149 | -0.183 |
| THUMPD1 (UniProt Q9NXG2) | 0.166 | 0.155 | 3.08 |
| LPCAT3 (UniProt Q6P1A2) | 0.125 | 0.0829 | 0.724 |
| KIFC1 (UniProt Q9BW19) | 0.126 | 0.0537 | -0.106 |
| TBC1D5 (UniProt Q92609) | -0.097 | -0.749 | -0.0438 |
| STRN3 (UniProt Q13033) | 0.231 | 0.318 | 0.326 |
| RFX5 (UniProt P48382) | 0.562 | 0.613 | 0.132 |
| PYCR1 (UniProt P32322) | -0.0172 | -0.299 | -0.368 |
| C20ORF24 (UniProt Q9BUV8) | 0.799 | 0.361 | -0.477 |
| AAMP (UniProt Q13685) | 0.409 | -0.389 | 0.924 |
| ARPC1B (UniProt O15143) | -0.0473 | -0.175 | -0.0161 |
| GTF3C4 (UniProt Q9UKN8) | 0.237 | 0.0733 | -1.21 |
| CYB5B (UniProt O43169) | 1.05 | 0.411 | 0.322 |
| VKORC1L1 (UniProt Q8N0U8) | 0.529 | -0.318 | 0.544 |
| KIN (UniProt O60870) | -0.0116 | 0.0339 | -0.174 |
| RWDD2B (UniProt P57060) | 0.0612 | -0.0257 | -0.0179 |
| SLIRP (UniProt Q9GZT3) | -0.917 | -0.197 | 0.123 |
| STBD1 (UniProt O95210) | -0.616 | 0.112 | 0.149 |
| PPA1 (UniProt Q15181) | 1.07 | 0.424 | -0.342 |
| C21ORF59 (UniProt P57076) | 0.103 | 0.1 | 0.112 |
| CDC23 (UniProt Q9UJX2) | -0.546 | -0.315 | -0.726 |
| DLGAP5 (UniProt Q15398) | -0.352 | -0.378 | -0.0873 |
| TRMT5 (UniProt Q32P41) | -0.124 | 0.0028 | -0.112 |
